biological target: not listed separately; assay: Inhibition of yeast alpha-glucosidase using p-nitrophenyl-alpha-d-glucopyranoside as substrate preincubated for 10 mins followed by substrate addition measured after 20 mins; design: species or system Saccharomyces cerevisiae

IC50 [µM]	SMILES
10 to 172	COc1ccc(C2C(C#N)=C(N)Oc3c2c(=O)[nH]c2c3ccc3ccccc32)cc1OC (centres undefined)
10 to 172	N#CC1=C(N)Oc2c(c(=O)[nH]c3c2ccc2ccccc23)C1c1ccc(O)cc1 (centres undefined)
10 to 172	N#CC1=C(N)Oc2c(c(=O)[nH]c3c2ccc2ccccc23)C1c1cccc([N+](=O)[O-])c1 (centres undefined)
10 to 172	Cc1ccsc1C1C(C#N)=C(N)Oc2c1c(=O)[nH]c1c2ccc2ccccc21 (centres undefined)
10 to 172	N#CC1=C(N)Oc2c(c(=O)[nH]c3c2ccc2ccccc23)C1c1ccc(Br)cc1 (centres undefined)
10 to 172	COc1cc(C2C(C#N)=C(N)Oc3c2c(=O)[nH]c2c3ccc3ccccc32)ccc1O (centres undefined)
10 to 172	Cc1ccc(C2C(C#N)=C(N)Oc3c2c(=O)[nH]c2c3ccc3ccccc32)cc1 (centres undefined)
10	N#CC1=C(N)Oc2c(c(=O)[nH]c3c2ccc2ccccc23)C1c1ccc(Cl)cc1 (centres undefined)
10 to 172	N#CC1=C(N)Oc2c(c(=O)[nH]c3c2ccc2ccccc23)C1c1cccc(O)c1 (centres undefined)
15	N#CC1=C(N)Oc2c(c(=O)[nH]c3c2ccc2ccccc23)C1c1ccc(F)cc1 (centres undefined)
10 to 172	N#CC1=C(N)Oc2c(c(=O)[nH]c3c2ccc2ccccc23)C1c1ccc([N+](=O)[O-])cc1 (centres undefined)
10 to 172	N#CC1=C(N)Oc2c(c(=O)[nH]c3c2ccc2ccccc23)C1c1ccccc1 (centres undefined)
10 to 172	CN(C)c1ccc(C2C(C#N)=C(N)Oc3c2c(=O)[nH]c2c3ccc3ccccc32)cc1 (centres undefined)
10 to 172	N#CC1=C(N)Oc2c(c(=O)[nH]c3c2ccc2ccccc23)C1c1cccc(F)c1 (centres undefined)
10 to 172	N#CC1=C(N)Oc2c(c(=O)[nH]c3c2ccc2ccccc23)C1c1ccncc1 (centres undefined)
10 to 172	COc1ccc(C2C(C#N)=C(N)Oc3c2c(=O)[nH]c2c3ccc3ccccc32)cc1 (centres undefined)
10 to 172	N#CC1=C(N)Oc2c(c(=O)[nH]c3c2ccc2ccccc23)C1c1ccccc1Br (centres undefined)

biological target: not listed separately; assay: Inhibition of yeast alpha-glucosidase using p-nitrophenyl-alpha-d-glucopyranoside as substrate preincubated for 5 mins followed by substrate addition measured after 5 mins; design: species or system Saccharomyces cerevisiae

IC50 [µM]	SMILES
12 to 162	O=[N+]([O-])c1ccc2cc(-c3nnc(-c4ccccc4O)o3)oc2c1
12	O=[N+]([O-])c1ccc2cc(-c3nnc(-c4cccc(O)c4O)o3)oc2c1

biological target: T1, Alpha glucosidase (Homo sapiens, UniProt O43451+P10253+P14410+Q2M2H8); assay: Inhibition of alpha-glucosidase (unknown origin) using p-nitro phenyl glucopyranoside as substrate preincubated for 5 mins followed by substrate addition measured after 30 mins; assay type: protein assay

IC50 [µM]	SMILES
0.07 to 0.76	O=c1cc(-c2nn(C(Nc3ccc(-c4ccc(NC(c5ccc(Cl)cc5Cl)n5nc(-c6cc7ccccc7oc6=O)oc5=S)cc4)cc3)c3ccc(Cl)cc3Cl)c(=S)o2)c2ccccc2o1 (centres undefined)
0.07 to 0.76	O=c1cc(-c2nn(C(Nc3ccc(-c4ccc(NC(c5cccc(Br)c5)n5nc(-c6cc7ccccc7oc6=O)oc5=S)cc4)cc3)c3cccc(Br)c3)c(=S)o2)c2ccccc2o1 (centres undefined)
0.07 to 0.76	O=c1cc(-c2nn(C(Nc3ccc(NC(c4ccc(F)cc4)n4nc(-c5cc6ccccc6oc5=O)oc4=S)cc3)c3ccc(F)cc3)c(=S)o2)c2ccccc2o1 (centres undefined)
0.07 to 0.76	O=c1cc(-c2nn(C(Nc3ccc(-c4ccc(NC(c5ccc([N+](=O)[O-])cc5)n5nc(-c6cc7ccccc7oc6=O)oc5=S)cc4)cc3)c3ccc([N+](=O)[O-])cc3)c(=S)o2)c2ccccc2o1 (centres undefined)
0.07 to 0.76	Cc1ccc(C(Nc2ccc(-c3ccc(NC(c4ccc(C)cc4)n4nc(-c5cc(=O)oc6ccccc56)oc4=S)cc3)cc2)n2nc(-c3cc4ccccc4oc3=O)oc2=S)cc1 (centres undefined)
0.07 to 0.76	CN(C)c1ccc(C(Nc2ccc(Oc3ccc(NC(c4ccc(N(C)C)cc4)n4nc(-c5cc6ccccc6oc5=O)oc4=S)cc3)cc2)n2nc(-c3cc4ccccc4oc3=O)oc2=S)cc1 (centres undefined)
0.07 to 0.76	O=c1cc(-c2nn(C(Nc3ccc(-c4ccc(NC(c5ccc(Br)cc5)n5nc(-c6cc7ccccc7oc6=O)oc5=S)cc4)cc3)c3ccc(Br)cc3)c(=S)o2)c2ccccc2o1 (centres undefined)
0.07 to 0.76	O=c1oc2ccccc2cc1-c1nn(C(Nc2ccc(Oc3ccc(NC(c4ccc(Cl)cc4)n4nc(-c5cc6ccccc6oc5=O)oc4=S)cc3)cc2)c2ccc(Cl)cc2)c(=S)o1 (centres undefined)
0.07 to 0.76	O=c1cc(-c2nn(C(Nc3ccc(NC(c4cccc(Br)c4)n4nc(-c5cc6ccccc6oc5=O)oc4=S)cc3)c3cccc(Br)c3)c(=S)o2)c2ccccc2o1 (centres undefined)
0.07 to 0.76	O=c1cc(-c2nn(C(Nc3ccc(NC(c4ccc([N+](=O)[O-])cc4)n4nc(-c5cc6ccccc6oc5=O)oc4=S)cc3)c3ccc([N+](=O)[O-])cc3)c(=S)o2)c2ccccc2o1 (centres undefined)
0.07 to 0.76	O=c1oc2ccccc2cc1-c1nn(C(Nc2ccc(Oc3ccc(NC(c4ccc(Br)cc4)n4nc(-c5cc6ccccc6oc5=O)oc4=S)cc3)cc2)c2ccc(Br)cc2)c(=S)o1 (centres undefined)
0.07 to 0.76	O=c1oc2ccccc2cc1-c1nn(C(Nc2ccc(Oc3ccc(NC(c4ccc(Cl)cc4Cl)n4nc(-c5cc6ccccc6oc5=O)oc4=S)cc3)cc2)c2ccc(Cl)cc2Cl)c(=S)o1 (centres undefined)
0.07 to 0.76	O=c1oc2ccccc2cc1-c1nn(C(Nc2ccc(Oc3ccc(NC(c4ccc([N+](=O)[O-])cc4)n4nc(-c5cc6ccccc6oc5=O)oc4=S)cc3)cc2)c2ccc([N+](=O)[O-])cc2)c(=S)o1 (centres undefined)

biological target: T1, Alpha glucosidase; assay: Inhibition of alpha-glucosidase (unknown origin) using pNPG as substrate preincubated for 10 mins followed by substrate addition measured after 30 mins; assay type: protein assay

IC50 [µM]	SMILES
2.3	O=C(N/N=C/c1cc(O)c(O)c(O)c1)c1cc2ccccc2[nH]1
8.3 to 98	FC(F)(F)c1ccc(-c2[nH]c3ccccc3c2-c2nc(-c3ccccc3)c(-c3ccccc3)n2-c2ccccc2)cc1
2.3 to 226	O=C(N/N=C/c1cc(O)cc(O)c1)c1cc2ccccc2[nH]1
2.3 to 226	COc1cc(/C=N/NC(=O)c2cc3ccccc3[nH]2)ccc1O
8.3 to 98	COc1ccc(-n2c(-c3c(-c4cccc(Br)c4)[nH]c4ccccc34)nc(-c3ccccc3)c2-c2ccccc2)cc1
8.3 to 98	COc1ccc(-n2c(-c3c(-c4ccc(Cl)cc4)[nH]c4ccc(Cl)cc34)nc(-c3ccccc3)c2-c2ccccc2)cc1
2.3 to 226	O=C(N/N=C/c1c(O)cc(O)cc1O)c1cc2ccccc2[nH]1
8.3 to 98	Fc1ccc2[nH]c(-c3ccccc3)c(-c3nc(-c4ccccc4)c(-c4ccccc4)n3-c3ccccc3)c2c1
2.3 to 226	COc1ccc(/C=N/NC(=O)c2cc3ccccc3[nH]2)c(I)c1O
2.3 to 226	COc1ccc(O)c(/C=N/NC(=O)c2cc3ccccc3[nH]2)c1
8.3 to 98	Clc1cccc(-c2[nH]c3ccccc3c2-c2nc(-c3ccccc3)c(-c3ccccc3)n2-c2ccccc2)c1
2.3 to 226	O=C(N/N=C/c1ccc(Cl)cc1)c1cc2ccccc2[nH]1
2.3 to 226	O=C(N/N=C/c1ccc(Br)c(F)c1)c1cc2ccccc2[nH]1
8.3 to 98	Brc1ccc(-n2c(-c3c(-c4cccc(Br)c4)[nH]c4ccccc34)nc(-c3ccccc3)c2-c2ccccc2)cc1
8.3 to 98	Fc1ccc2[nH]c(-c3ccccc3)c(-c3nc(-c4ccccc4)c(-c4ccccc4)n3-c3cccc(Cl)c3)c2c1
2.3 to 226	O=C(N/N=C/c1cc(O)ccc1O)c1cc2ccccc2[nH]1
8.3	CC(=O)Nc1ccc(-n2c(-c3c(-c4ccccc4)[nH]c4ccc(F)cc34)nc(-c3ccccc3)c2-c2ccccc2)cc1
2.3 to 226	COc1ccc(/C=N/NC(=O)c2cc3ccccc3[nH]2)cc1O
2.3 to 226	O=C(N/N=C/c1ccc(O)cc1)c1cc2ccccc2[nH]1
2.3 to 226	O=C(N/N=C/c1ccccc1O)c1cc2ccccc2[nH]1
2.3 to 226	O=C(N/N=C/c1ccc(O)c(O)c1)c1cc2ccccc2[nH]1
2.3 to 226	O=C(N/N=C/c1cccc(O)c1O)c1cc2ccccc2[nH]1

biological target: T1, Alpha glucosidase; assay: Inhibition of alpha-glucosidase (unknown origin) using p-nitrophenyl-alpha-d-glucopyranoside as substrate preincubated for 10 mins followed by substrate addition measured after 30 mins; assay type: protein assay

IC50 [µM]	SMILES
0.4 to 38	COc1ccc(NC(=S)NNC(=O)c2ccc(-c3nnc(-c4ccccc4Cl)o3)cc2)cc1
0.4 to 38	O=C(NNC(=S)Nc1ccc(Cl)cc1)c1ccc(-c2nnc(-c3ccccc3Cl)o2)cc1
0.4 to 38	Cc1ccc(NC(=S)NNC(=O)c2ccc(-c3nnc(-c4ccccc4Cl)o3)cc2)cc1
2.3	CCOC(=O)C1=C(Nc2cccc(Br)c2)C[C@@H](c2ccc(Cl)cc2)N(c2cccc(Br)c2)[C@@H]1c1ccc(Cl)cc1
2.3 to 29	CCOC(=O)C1=C(Nc2cccc(F)c2)C[C@@H](c2ccc(Cl)cc2)N(c2cccc(F)c2)[C@@H]1c1ccc(Cl)cc1
2.3 to 29	CCOC(=O)C1=C(Nc2cccc([N+](=O)[O-])c2)C[C@@H](c2ccc(C)cc2)N(c2cccc([N+](=O)[O-])c2)[C@@H]1c1ccc(C)cc1
0.4 to 38	O=C(NNC(=S)Nc1cccc(F)c1)c1ccc(-c2nnc(-c3ccccc3Cl)o2)cc1
0.7	O=C(NNC(=S)Nc1ccccc1Cl)c1ccc(-c2nnc(-c3ccccc3Cl)o2)cc1
0.4 to 38	O=C(NNC(=S)Nc1ccc(F)cc1)c1ccc(-c2nnc(-c3ccccc3Cl)o2)cc1
0.4 to 38	O=C(NNC(=S)Nc1ccc([N+](=O)[O-])cc1)c1ccc(-c2nnc(-c3ccccc3Cl)o2)cc1
0.4 to 38	O=C(NNC(=S)Nc1ccc(Cl)c(Cl)c1)c1ccc(-c2nnc(-c3ccccc3Cl)o2)cc1
0.4 to 38	O=C(NNC(=S)Nc1cccc([N+](=O)[O-])c1)c1ccc(-c2nnc(-c3ccccc3Cl)o2)cc1
0.4 to 38	COc1ccccc1NC(=S)NNC(=O)c1ccc(-c2nnc(-c3ccccc3Cl)o2)cc1
0.4 to 38	COc1cccc(NC(=S)NNC(=O)c2ccc(-c3nnc(-c4ccccc4Cl)o3)cc2)c1
0.4 to 38	Cc1cccc(NC(=S)NNC(=O)c2ccc(-c3nnc(-c4ccccc4Cl)o3)cc2)c1
0.4	O=C(NNC(=S)Nc1ccccc1F)c1ccc(-c2nnc(-c3ccccc3Cl)o2)cc1
0.6	O=C(NNC(=S)Nc1ccc(C(F)(F)F)cc1)c1ccc(-c2nnc(-c3ccccc3Cl)o2)cc1
0.4 to 38	O=C(NNC(=S)Nc1ccccc1Br)c1ccc(-c2nnc(-c3ccccc3Cl)o2)cc1
2.3 to 29	CCOC(=O)C1=C(Nc2cccc(Cl)c2)C[C@@H](c2ccc(Cl)cc2)N(c2cccc(Cl)c2)[C@@H]1c1ccc(Cl)cc1
0.4 to 38	O=C(NNC(=S)Nc1ccc(Br)cc1)c1ccc(-c2nnc(-c3ccccc3Cl)o2)cc1

biological target: T1, Alpha glucosidase; assay: Inhibition of alpha-glucosidase (unknown origin) using p-nitrophenyl-alpha-d-glucopyranoside as substrate preincubated for 5 mins followed by substrate addition measured after 30 mins; assay type: protein assay

IC50 [µM]	SMILES
0.1 to 0.15	Cc1cs/c(=N\C(=O)c2cc3ccccc3oc2=O)n1-c1cc(Cl)c(Cl)cc1Cl
0.1 to 0.15	Cc1cs/c(=N\C(=O)c2ccco2)n1-c1cc(Cl)c(Cl)cc1Cl
0.1 to 0.15	Cc1cccc(C(=O)/N=c2\scc(C)n2-c2cc(Cl)c(Cl)cc2Cl)c1
0.1 to 0.15	Cc1cs/c(=N\C(=O)c2ccccc2Cl)n1-c1cc(Cl)c(Cl)cc1Cl
0.1 to 0.15	COc1ccc(C(=O)/N=c2\scc(C)n2-c2cc(Cl)c(Cl)cc2Cl)cc1

From ChEMBL document CHEMBL4304757, “Synthetic heterocyclic candidates as promising α-glucosidase inhibitors: An overview” (Eur J Med Chem, 2019)
